One block for each substance: values may come before it. Starred links: 1 amine or outer side, 2 acyl side, 3 side chain; linkers in the order of their positions; H or OH if unused. Positions of bridges follow the written chain, without caps; N, C: chain ends. Non-standard residues stand in square brackets, D forms with d. Primed or numbered codes have the meaning given here. No end group written: not given here. Bpg″ = L-bishomopropargylglycine residue, C#CCCC[C@H](N[*:1])C(=O)[*:2]; Lys(N3) = [N-]=[N+]=NCCCC[C@H](N)C(=O)O; Orn(N3) = [N-]=[N+]=NCCC[C@H](N)C(=O)O; Aha = [N-]=[N+]=NCC[C@H](N)C(=O)O; Bpg = L-bishomopropargylglycine; Hpra = C#CCC[C@H](N)C(=O)O; Pra = C#CC[C@H](N)C(=O)O
Key:
[1] = tested on: human immunoglobulin G (IgG) antibodies; assay: Relative binding activity to human IgG antibodies by surface plasmon resonance on immobilized sensor chip; settings: for Relative binding activity: SPR (Biacore 3000, CM5 chip), 3,000 nM human IgG for 10 minutes at 25° C., relative to the cyclic peptide of Comparative Example 1 regarded as 1
Method: A commercially available CM5 (carboxymethyl dextran introduction-type, manufactured by GE Healthcare) sensor chip was set in Biacore 3000 (Biacore is a registered trademark) as a surface plasmon resonance device manufactured by GE Healthcare, a 4-(2-hydroxyethyl)-1-piperazineethanesulfonic acid (HEPES) buffer solution (20 mM HEPES-HCl, 150 mM NaCl, pH 7.4) for surface plasmon resonance (SPR) was stabilized at a flow rate of 10 μL/min, and 70 μL of an aqueous mixed solution of 0.2 M 1-(3-Dimethylaminopropyl)-3-ethylcarbodiimide (EDC) and […] of N-Hydroxysuccinimide (NHS) were injected thereinto. Thereafter, 100 μL of a sample solution of the cyclic peptide 1, which was diluted with a HEPES buffer solution at 0.2 g/L and treated with a polytetrafluoroethylene (PTFE) filter (manufactured by Advantec MFS, Inc.) having a diameter of 0.20 μm, was supplied to the sensor chip. Then, a blocking treatment was then performed on the sample solution by using an aqueous ethanolamine solution, and the sensor chip was washed with an aqueous sodium hydroxide solution, thereby performing immobilization. Likewise, 70 μL of an aqueous mixed solution of 0.2 M EDC and 0.04 M NHS was added to the same sensor chip without immobilizing the sample in another flow channel of the sensor chip, and then the blocking treatment and the washing treatment were performed. Hereinafter, the obtained immobilized sensor chip will be referred to as “immobilized sensor chip A”.
At 25° C., 3,000 nM of human immunoglobulin G (IgG) antibodies were added for 10 minutes to the immobilized sensor chip A prepared in (2) described above. Then, the antibody binding amount in the flow channel in which the cyclic peptide was immobilized immediately after the addition and in the flow channel in which the cyclic peptide was not immobilized was measured. From the difference in the antibody binding amount between the flow channel in which the cyclic peptide was immobilized and the flow channel in which the cyclic peptide was not immobilized and the amount of the immobilized cyclic peptide, the activity of the cyclic peptide was calculated. Furthermore, by regarding the activity of a cyclic peptide 5 in Comparative Example 1 as 1, the relative binding activity with respect to the human IgG antibodies was calculated.

[2] = Chemical resistance: rate of change in antibody binding amount of immobilized support before and after alkali treatment; format: physicochemical; settings: for Chemical resistance (rate of change in the binding amount): peptide-immobilized HiTrap support, human IgG binding amount at 10% leak, before and after 0.05 M aqueous NaOH for 6 hours at 25° C.; for chemical resistance (in words): summary wording of the chemical resistance evaluation
Method: 1 mL of HiTrap NHS-activated HP Columns (coupling columns for ligand immobilization, manufactured by GE Healthcare) (HITRAP is a registered trademark) was reacted with 1 mL of 10 mg/mL cyclic peptide solution, which was prepared by dissolving the cyclic peptide 1 in an immobilization buffer (10% DMSO in 200 mM NaHCO3, 500 mM NaCl, pH 8.3), for 1 hour at 25° C. The reaction product was blocked by an aqueous ethanolamine solution and washed, thereby obtaining a cyclic peptide 1-immobilized support. Hereinafter, the obtained immobilized support will be referred to as “immobilized support A”.
The immobilized support A prepared in (4) described above was connected to a chromatography system AKTA avant 25 (manufactured by GE Healthcare) (AKTAAVANT is a registered trademark), and the antibody binding amount was measured. The columns were equilibrated using an equilibration solution (20 mM phosphoric acid buffer, 150 mM NaCl, pH 7.4), and then 20 mL of a 5 mg/mL human IgG antibody standard buffer solution (20 mM phosphoric acid buffer, 150 mM NaCl, pH 7.4) was injected thereinto at a flow rate of 0.21 mL/min. Thereafter, the columns were washed with 5 mL of a postloading wash solution (20 mM phosphoric acid buffer, 150 mM NaCl, pH 7.4) caused to flow at the same flow rate and then washed with 5 mL of a pre-elution wash solution (20 mM phosphoric acid buffer, 1 M NaCl, pH 7.4) at the same flow rate. Then, 5 mL of an elution solution (100 mM citric acid buffer, pH 3.2) was caused to flow at the same flow rate. Subsequently, 5 mL of a cleaning in place (CIP) solution (0.1 M sodium hydroxide) was caused to flow at the same flow rate, and then 5 mL of a reequilibration solution (20 mM phosphoric acid buffer, 150 mM NaCl, pH 7.4) was caused to flow at the same flow rate. At this time, by using an immunoglobulin G (IgG) elution peak obtained by monitoring absorbance at 280 nm, the amount of antibodies binding to the support until 10% of the antibody stock solution leaked out of the support was measured as the antibody binding amount. Then, the immobilized support A was filled with a 0.05 M aqueous NaOH solution for 6 hours at 25° C. and left to stand, the antibody binding amount of the support was then measured in the same manner, and a rate of change in the binding amount was calculated from the antibody binding amount before and after the alkali treatment.

Substance: Asp-[Abu(N3)]-Ala-Tyr-His-Arg-Gly-Glu-Leu-Val-Trp-[Pra]-Thr-Lys-Lys (D[Aha]AYHRGELVW[Pra]TKK; triazole 2-12) [Cyclic peptide 6, [Abu(N3)] and [Pra] cross-linked through a triazole bond]
Relative binding activity [1]: B (The relative binding activity was higher than 400% and equal to or lower than 800% of the binding activity of the cyclic peptide 5) | Chemical resistance (rate of change in the binding amount) [2]: B (The rate of change in the binding amount was higher than 80% and equal to or lower than 90%)

Substance: Asp-[Abu(N3)]-Ala-Tyr-His-Leu-Gly-Glu-Leu-Val-Trp-[Bpg]-Thr-Lys-Lys (D[Aha]AYHLGELVW[Bpg]TKK; triazole 2-12) [Cyclic peptide 13, [Abu(N3)] and [Bpg] cross-linked through a triazole bond]
Relative binding activity [1]: B (The relative binding activity was higher than 400% and equal to or lower than 800% of the binding activity of the cyclic peptide 5) | Chemical resistance (rate of change in the binding amount) [2]: A (The rate of change in the binding amount was higher than 90%)

Substance: Asp-[Abu(N3)]-Ala-Tyr-His-Leu-Gly-Glu-Leu-Val-Trp-[Hpg]-Thr-Lys-Lys (D[Aha]AYHLGELVW[Hpra]TKK; triazole 2-12) [Cyclic peptide 11, [Abu(N3)] and [Hpg] cross-linked through a triazole bond]
Relative binding activity [1]: A (The relative binding activity was higher than 800% of the binding activity of the cyclic peptide 5) | Chemical resistance (rate of change in the binding amount) [2]: A (The rate of change in the binding amount was higher than 90%)

Substance: Asp-[Abu(N3)]-Ala-Tyr-His-Leu-Gly-Glu-Leu-Val-Trp-[Pra]-Thr-Lys-Lys (D[Aha]AYHLGELVW[Pra]TKK; triazole 2-12) [Cyclic peptide 7, [Abu(N3)] and [Pra] cross-linked through a triazole bond]
Relative binding activity [1]: B (The relative binding activity was higher than 400% and equal to or lower than 800% of the binding activity of the cyclic peptide 5) | Chemical resistance (rate of change in the binding amount) [2]: A (The rate of change in the binding amount was higher than 90%)

Substance: Asp-[Bpg]-Ala-Tyr-His-Leu-Gly-Glu-Leu-Val-Trp-[Lys(N3)]-Thr-Lys-Lys (D[Bpg]AYHLGELVW[Lys(N3)]TKK; triazole 2-12) [Cyclic peptide 3, [Bpg] and [Lys(N3)] cross-linked through a triazole bond]
Relative binding activity [1]: A (The relative binding activity was higher than 800% of the binding activity of the cyclic peptide 5) | Chemical resistance (rate of change in the binding amount) [2]: A (The rate of change in the binding amount was higher than 90%)

Substance: Asp-[Bpg]-Ala-Tyr-His-Leu-Gly-Glu-Leu-Val-Trp-[Nva(N3)]-Thr-Lys-Lys (D[Bpg″]AYHLGELVW[Orn(N3)]TKK; triazole 2-12; also: Xaa2 derived from gamma-azido-L-homoalanine) [Cyclic peptide 14, [Bpg] and [Nva(N3)] cross-linked through a triazole bond]
Relative binding activity [1]: B (The relative binding activity was higher than 400% and equal to or lower than 800% of the binding activity of the cyclic peptide 5) | Relative binding activity ([1]; listed as Example 14): C or a higher grade | Chemical resistance (rate of change in the binding amount) [2]: A (The rate of change in the binding amount was higher than 90%)

Substance: Asp-[Cys]-Ala-Tyr-His-Arg-Gly-Glu-Leu-Val-Trp-[Cys]-Thr-Lys-Lys (DCAYHRGELVWCTKK; disulfide 2-12) [Cyclic peptide 19, two [Cys]'s cross-linked through a disulfide bond; comparative, reference compound]
Relative binding activity [1]: A (The relative binding activity was higher than 800% of the binding activity of the cyclic peptide 5) | Chemical resistance (rate of change in the binding amount) [2]: E (The rate of change in the binding amount was equal to or lower than 50%) | chemical resistance (in words) [2]: poor

antibody binding properties (in words) ([1]; summary wording of the relative binding activity evaluation, listed as Comparative Example 2): excellent and poor | chemical resistance (in words) ([2]; listed as Comparative Example 2): poor and sufficient
Substance: Asp-[Glu]-Ala-Tyr-His-Leu-Gly-Glu-Leu-Val-Trp-[Lys]-Thr-Lys-Lys [Cyclic peptide 18, reference compound]
Relative binding activity [1]: E (The relative binding activity was equal to or lower than 100% of the binding activity of the cyclic peptide 5) | Chemical resistance (rate of change in the binding amount) [2]: B (The rate of change in the binding amount was higher than 80% and equal to or lower than 90%)

Substance: Asp-[Hpg]-Ala-Tyr-His-Leu-Gly-Glu-Leu-Val-Trp-[Abu(N3)]-Thr-Lys-Lys (D[Hpra]AYHLGELVW[Aha]TKK; triazole 2-12) [Cyclic peptide 12, [Hpg] and [Abu(N3)] cross-linked through a triazole bond]
Relative binding activity [1]: A (The relative binding activity was higher than 800% of the binding activity of the cyclic peptide 5) | Chemical resistance (rate of change in the binding amount) [2]: A (The rate of change in the binding amount was higher than 90%)

Substance: Asp-[Hpg]-Ala-Tyr-His-Leu-Gly-Glu-Leu-Val-Trp-[Nva(N3)]-Thr-Lys-Lys (D[Hpra]AYHLGELVW[Orn(N3)]TKK; triazole 2-12) [Cyclic peptide 15, [Hpg] and [Nva(N3)] cross-linked through a triazole bond]
Relative binding activity [1]: B (The relative binding activity was higher than 400% and equal to or lower than 800% of the binding activity of the cyclic peptide 5) | Chemical resistance (rate of change in the binding amount) [2]: A (The rate of change in the binding amount was higher than 90%)

Substance: Asp-[Lys(N3)]-Ala-Tyr-His-Leu-Gly-Glu-Leu-Val-Trp-[Hpg]-Thr-Lys-Lys (D[Lys(N3)]AYHLGELVW[Hpra]TKK; triazole 2-12) [Cyclic peptide 8, [Lys(N3)] and [Hpg] cross-linked through a triazole bond]
Relative binding activity [1]: B (The relative binding activity was higher than 400% and equal to or lower than 800% of the binding activity of the cyclic peptide 5) | Chemical resistance (rate of change in the binding amount) [2]: A (The rate of change in the binding amount was higher than 90%)

Substance: Asp-[Lys(N3)]-Ala-Tyr-His-Leu-Gly-Glu-Leu-Val-Trp-[Pra]-Thr-Lys-Lys (D[Lys(N3)]AYHLGELVW[Pra]TKK; triazole 2-12) [Cyclic peptide 10, [Lys(N3)] and [Pra] cross-linked through a triazole bond]
Relative binding activity [1]: C (The relative binding activity was higher than 200% and equal to or lower than 400% of the binding activity of the cyclic peptide 5) | Chemical resistance (rate of change in the binding amount) [2]: A (The rate of change in the binding amount was higher than 90%)

From patent publication US11066446B2, “Cyclic peptide, affinity chromatography support, labeled antibody, antibody drug conjugate, and pharmaceutical preparation” (FUJIFILM Corporation, priority 2016, dated 2021)
